Test results reported in patent publication US20230085307A1, “PYRIDAZINONE COMPOUND AND HERBICIDE” (NISSAN CHEMICAL CORPORATION, priority 2019, published 2023).

Columns and labels:
late watergrass [1] = assay: Test Example 1: herbicidal activity, application before weed generation under submerged conditions (Table 16, symbol A); type: in vivo, late watergrass (Echinochloa oryzicola); conditions: 320 g/ha applied herbicide
Outline: (§1)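 Submerged Wagner pots (alluvial soil, 4 cm water) sown with weed seeds and planted with 2.5-leaf rice seedlings; emulsifiable concentrate diluted in water applied to water surface on sowing day. Held in greenhouse at 25-30 °C; injury scored 0-5 by herbicidal rate after three weeks.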

Japanese bulrush [2] = assay: Test Example 1: herbicidal activity, application before weed generation under submerged conditions (Table 16, symbol B); type: in vivo, Japanese bulrush (Schoenoplectus juncoides); conditions: 320 g/ha applied herbicide
Outline: as §1

oval-leafed pondweed [3] = assay: Test Example 1: herbicidal activity, application before weed generation under submerged conditions (Table 16, symbol C); type: in vivo, oval-leafed pondweed (Monochoria vaginalis); conditions: 320 g/ha applied herbicide
Outline: as §1

late watergrass [4] = assay: Test Example 2: herbicidal activity, application during weed generation under submerged conditions (Table 17, symbol A); type: in vivo, late watergrass (Echinochloa oryzicola); conditions: AAH 320 g/ha; application during weed generation, submerged conditions
Outline: (§2)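 Steps: fill Wagner pots with alluvial soil; add water to give 4 cm depth; sow the species mixed; grow under glass at 25–30° C.; at 1–2 leaves apply water-diluted emulsion formulation to the water surface at a fixed herbicide amount; score after 3 weeks.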

Japanese bulrush [5] = assay: Test Example 2: herbicidal activity, application during weed generation under submerged conditions (Table 17, symbol B); type: in vivo, Japanese bulrush (Schoenoplectus juncoides); conditions: AAH 320 g/ha; application during weed generation, submerged conditions
Outline: as §2

oval-leafed pondweed [6] = assay: Test Example 2: herbicidal activity, application during weed generation under submerged conditions (Table 17, symbol C); type: in vivo, oval-leafed pondweed (Monochoria vaginalis); conditions: AAH 320 g/ha; application during weed generation, submerged conditions
Outline: as §2

barnyard grass [7] = assay: Test Example 3: herbicidal effect by foliage application, Wagner pot (Table 18, symbol H); type: in vivo, barnyard grass (Echinochloa crus-galli)
Outline: (§3)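 Plants were sown in alluvial soil held under 0.1–0.5 cm standing water and grown 14 days in a greenhouse at 25–30 °C. An emulsifiable formulation, water-diluted to the set dose, was then sprayed onto the foliage, and effects were scored three weeks later using previously defined criteria.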

Chinese sprangletop = assay: Test Example 3: herbicidal effect by foliage application, Wagner pot (Table 18, symbol D); type: in vivo, chinese sprangletop (Leptochloa chinensis)
Outline: as §3

rice flat sedge = assay: Test Example 3: herbicidal effect by foliage application, Wagner pot (Table 18, symbol E); type: in vivo, rice flat sedge (Cyperus iria)
Outline: as §3

southern crabgrass [8] = assay: Test Example 5: herbicidal effect by foliage application, plastic box (Table 20, symbol F); type: in vivo, southern crabgrass (Digitaria ciliaris); conditions: foliage application, 320 g/ha
Outline: (§4)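 Sow seeds spot-wise in sterilized diluvial soil; cover with ~1.5 cm soil. Grow 14 days in greenhouse, 25° C. to 30° C. Spray foliage with emulsion diluted to predetermined amount. Rate effect after 3 weeks.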

green foxtail [9] = assay: Test Example 5: herbicidal effect by foliage application, plastic box (Table 20, symbol G); type: in vivo, green foxtail (Setaria viridis); conditions: foliage application, 320 g/ha
Outline: as §4

barnyard grass [10] = assay: Test Example 5: herbicidal effect by foliage application, plastic box (Table 20, symbol H); type: in vivo, barnyard grass (Echinochloa crus-galli); conditions: foliage application, 320 g/ha
Outline: as §4

wild oat [11] = assay: Test Example 5: herbicidal effect by foliage application, plastic box (Table 20, symbol I); type: in vivo, wild oat (Avena fatua); conditions: foliage application, 320 g/ha
Outline: as §4

blackgrass [12] = assay: Test Example 5: herbicidal effect by foliage application, plastic box (Table 20, symbol J); type: in vivo, blackgrass (Alopecurus myosuroides); conditions: foliage application, 320 g/ha
Outline: as §4

Italian ryegrass [13] = assay: Test Example 5: herbicidal effect by foliage application, plastic box (Table 20, symbol K); type: in vivo, Italian ryegrass (Lolium multiflorum); conditions: foliage application, 320 g/ha
Outline: as §4

windgrass = assay: Test Example 5: herbicidal effect by foliage application, plastic box (Table 20, symbol L); type: in vivo, windgrass (Apera spica-venti); conditions: foliage application, 320 g/ha
Outline: as §4

velvetleaf [14] = assay: Test Example 5: herbicidal effect by foliage application, plastic box (Table 20, symbol M); type: in vivo, velvetleaf (Abutilon theophrasti); conditions: foliage application, 320 g/ha
Outline: as §4

redroot pigweed [15] = assay: Test Example 5: herbicidal effect by foliage application, plastic box (Table 20, symbol N); type: in vivo, redroot pigweed (Amaranthus retroflexus); conditions: foliage application, 320 g/ha
Outline: as §4

lambsquarters [16] = assay: Test Example 5: herbicidal effect by foliage application, plastic box (Table 20, symbol O); type: in vivo, lambsquarters (Chenopodium album); conditions: foliage application, 320 g/ha
Outline: as §4

chickweed = assay: Test Example 5: herbicidal effect by foliage application, plastic box (Table 20, symbol P); type: in vivo, common chickweed (Stellaria media); conditions: foliage application, 320 g/ha
Outline: as §4

false cleavers [17] = assay: Test Example 5: herbicidal effect by foliage application, plastic box (Table 20, symbol Q); type: in vivo, false cleavers (Galium spurium); conditions: foliage application, 320 g/ha, evaluated three weeks after application
Outline: as §4

persian speedwell = assay: Test Example 5: herbicidal effect by foliage application, plastic box (Table 20, symbol R); type: in vivo, Persian speedwell (Veronica persica); conditions: foliage application, 320 g/ha
Outline: as §4

southern crabgrass [18] = assay: Test Example 4: herbicidal effect by soil treatment (Table 19, symbol F); type: in vivo, southern crabgrass (Digitaria ciliaris); conditions: amount of applied herbicide 320 g/ha
Outline: (§5)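 Applied as a water-diluted emulsion, the compound was sprayed onto soil covering newly sown seeds. Evaluation came three weeks after application, in a greenhouse held at 25° C. to 30° C.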

green foxtail [19] = assay: Test Example 4: herbicidal effect by soil treatment (Table 19, symbol G); type: in vivo, green foxtail (Setaria viridis); conditions: amount of applied herbicide 320 g/ha
Outline: as §5

barnyard grass [20] = assay: Test Example 4: herbicidal effect by soil treatment (Table 19, symbol H); type: in vivo, barnyard grass (Echinochloa crus-galli); conditions: amount of applied herbicide 320 g/ha
Outline: as §5

wild oat [21] = assay: Test Example 4: herbicidal effect by soil treatment (Table 19, symbol I); type: in vivo, wild oat (Avena fatua); conditions: amount of applied herbicide 320 g/ha
Outline: as §5

blackgrass [22] = assay: Test Example 4: herbicidal effect by soil treatment (Table 19, symbol J); type: in vivo, blackgrass (Alopecurus myosuroides); conditions: amount of applied herbicide 320 g/ha
Outline: as §5

Italian ryegrass [23] = assay: Test Example 4: herbicidal effect by soil treatment (Table 19, symbol K); type: in vivo, Italian ryegrass (Lolium multiflorum); conditions: amount of applied herbicide 320 g/ha
Outline: as §5

velvetleaf [24] = assay: Test Example 4: herbicidal effect by soil treatment (Table 19, symbol M); type: in vivo, velvetleaf (Abutilon theophrasti); conditions: amount of applied herbicide 320 g/ha
Outline: as §5

redroot pigweed [25] = assay: Test Example 4: herbicidal effect by soil treatment (Table 19, symbol N); type: in vivo, redroot pigweed (Amaranthus retroflexus); conditions: amount of applied herbicide 320 g/ha
Outline: as §5

lambsquarters [26] = assay: Test Example 4: herbicidal effect by soil treatment (Table 19, symbol O); type: in vivo, lambsquarters (Chenopodium album); conditions: amount of applied herbicide 320 g/ha
Outline: as §5

false cleavers [27] = assay: Test Example 4: herbicidal effect by soil treatment (Table 19, symbol Q); type: in vivo, false cleavers (Galium spurium); conditions: amount of applied herbicide 320 g/ha
Text: [Test Example 4] Herbicidal Effect Test by Soil Treatment
Sterilized diluvial soil was placed in a plastic box having a length of 21 cm, a width of 13 cm, and a depth of 7 cm. The seeds of each of southern crabgrass, green foxtail, barnyard grass, wild oat, blackgrass, Italian ryegrass, windgrass, velvetleaf, redroot pigweed, lambsquarters, chickweed, false cleavers, persian speedwell, corn, soybean, rice, wheat, beet, and rapeseed were sowed in a spot-like manner and covered with the soil having a thickness of about 1.5 cm. Subsequently, the emulsion agent of the compound of the present invention prepared according to Formulation Example 2 was diluted with water so as to achieve a predetermined herbicide amount, and the diluted emulsion agent was uniformly applied to the surface of the soil with a small-sized spray. The plastic box was placed in a greenhouse at 25° C. to 30° C. for growth of the plants. Three weeks after the herbicide application, the effect of the herbicide on each plant was evaluated according to the criteria of Test Example 1.

[28] = evaluated three weeks after application
[29] = amount of applied herbicide 320 g/ha

SMILES: COCCOCOc1c(C)nn(C)c(=O)c1-c1c(-c2ccc(OCc3ccccc3)cc2)sc2ccc(F)cc12 [2-064]
- Herbicidal effect on A: late watergrass (grade 0-5) (late watergrass [1]): 4 (Herbicidal rate of 70% or more and less than 90%)
- Herbicidal effect on B: Japanese bulrush (grade 0-5) (Japanese bulrush [2]): 4 (Herbicidal rate of 70% or more and less than 90%)
- Herbicidal effect on C: oval-leafed pondweed (grade 0-5) (oval-leafed pondweed [3]): 3 (Herbicidal rate of 40% or more and less than 70%)
- herbicidal effect rating, A: late watergrass (late watergrass [4]): 3 (Herbicidal rate of 40% or more and less than 70%)
- herbicidal effect rating, B: Japanese bulrush (Japanese bulrush [5]): 3 (Herbicidal rate of 40% or more and less than 70%)
- herbicidal effect rating, C: oval-leafed pondweed (oval-leafed pondweed [6]): 0 (Herbicidal rate of 5% or less (almost no effect))
- herbicidal effect on H (barnyard grass), rating 0-5 (barnyard grass [7]; 320 g/ha): 3 (Herbicidal rate of 40% or more and less than 70%)
- herbicidal effect on D (Chinese sprangletop), rating 0-5 (Chinese sprangletop; 320 g/ha): 3 (Herbicidal rate of 40% or more and less than 70%)
- herbicidal effect on E (rice flat sedge), rating 0-5 (rice flat sedge; 320 g/ha): 0 (Herbicidal rate of 5% or less (almost no effect))
- herbicidal effect on F: southern crabgrass (southern crabgrass [8]; [28]): 3 (Herbicidal rate of 40% or more and less than 70%)
- herbicidal effect on G: green foxtail (green foxtail [9]; [28]): 3 (Herbicidal rate of 40% or more and less than 70%)
- herbicidal effect on H: barnyard grass (barnyard grass [10]; [28]): 3 (Herbicidal rate of 40% or more and less than 70%)
- herbicidal effect on I: wild oat (wild oat [11]; [28]): 0 (Herbicidal rate of 5% or less (almost no effect))
- herbicidal effect on J: blackgrass (blackgrass [12]; [28]): 0 (Herbicidal rate of 5% or less (almost no effect))
- herbicidal effect on K: Italian ryegrass (Italian ryegrass [13]; [28]): 0 (Herbicidal rate of 5% or less (almost no effect))
- herbicidal effect on L: windgrass (windgrass; [28]): 0 (Herbicidal rate of 5% or less (almost no effect))
- herbicidal effect on M: velvetleaf (velvetleaf [14]; [28]): 3 (Herbicidal rate of 40% or more and less than 70%)
- herbicidal effect on N: redroot pigweed (redroot pigweed [15]; [28]): 5 (Herbicidal rate of 90% or more (almost completely withered))
- herbicidal effect on O: lambsquarters (lambsquarters [16]; [28]): 4 (Herbicidal rate of 70% or more and less than 90%)
- herbicidal effect on P: chickweed (chickweed; [28]): 4 (Herbicidal rate of 70% or more and less than 90%)
- herbicidal effect on Q: false cleavers (false cleavers [17]): 4 (Herbicidal rate of 70% or more and less than 90%)
- herbicidal effect on R: persian speedwell (persian speedwell; [28]): 4 (Herbicidal rate of 70% or more and less than 90%)

SMILES: Cc1nn(C)c(=O)c(-c2c(-c3ccc(F)cc3)sc3cc(Cl)ccc23)c1O [3-031]
- herbicidal effect on H: barnyard grass (barnyard grass [7]; [29]): 5 (Herbicidal rate of 90% or more (almost completely withered))
- herbicidal effect on D: Chinese sprangletop (Chinese sprangletop; [29]): 2 (Herbicidal rate of 20% or more and less than 40%)
- herbicidal effect on E: rice flat sedge (rice flat sedge; [29]): 3 (Herbicidal rate of 40% or more and less than 70%)
- F: southern crabgrass, herbicidal effect grade (southern crabgrass [18]): 3 (Herbicidal rate of 40% or more and less than 70%)
- G: green foxtail, herbicidal effect grade (green foxtail [19]): 4 (Herbicidal rate of 70% or more and less than 90%)
- H: barnyard grass, herbicidal effect grade (barnyard grass [20]): 3 (Herbicidal rate of 40% or more and less than 70%)
- I: wild oat, herbicidal effect grade (wild oat [21]): 1 (Herbicidal rate of 5% or more and less than 20%)
- J: blackgrass, herbicidal effect grade (blackgrass [22]): 0 (Herbicidal rate of 5% or less (almost no effect))
- K: Italian ryegrass, herbicidal effect grade (Italian ryegrass [23]): 3 (Herbicidal rate of 40% or more and less than 70%)
- M: velvetleaf, herbicidal effect grade (velvetleaf [24]): 2 (Herbicidal rate of 20% or more and less than 40%)
- N: redroot pigweed, herbicidal effect grade (redroot pigweed [25]): 3 (Herbicidal rate of 40% or more and less than 70%)
- O: lambsquarters, herbicidal effect grade (lambsquarters [26]): 4 (Herbicidal rate of 70% or more and less than 90%)
- Q: false cleavers, herbicidal effect grade (false cleavers [27]): 4 (Herbicidal rate of 70% or more and less than 90%)
- F: southern crabgrass, herbicidal effect grade (southern crabgrass [8]; three weeks after application): 4 (Herbicidal rate of 70% or more and less than 90%)
- G: green foxtail, herbicidal effect grade (green foxtail [9]; three weeks after application): 5 (Herbicidal rate of 90% or more (almost completely withered))
- H: barnyard grass, herbicidal effect grade (barnyard grass [10]; three weeks after application): 4 (Herbicidal rate of 70% or more and less than 90%)
- I: wild oat, herbicidal effect grade (wild oat [11]; three weeks after application): 5 (Herbicidal rate of 90% or more (almost completely withered))
- J: blackgrass, herbicidal effect grade (blackgrass [12]; three weeks after application): 4 (Herbicidal rate of 70% or more and less than 90%)
- K: Italian ryegrass, herbicidal effect grade (Italian ryegrass [13]; three weeks after application): 5 (Herbicidal rate of 90% or more (almost completely withered))
- L: windgrass, herbicidal effect grade (windgrass; three weeks after application): 5 (Herbicidal rate of 90% or more (almost completely withered))
- M: velvetleaf, herbicidal effect grade (velvetleaf [14]; three weeks after application): 5 (Herbicidal rate of 90% or more (almost completely withered))
- N: redroot pigweed, herbicidal effect grade (redroot pigweed [15]; three weeks after application): 5 (Herbicidal rate of 90% or more (almost completely withered))
- O: lambsquarters, herbicidal effect grade (lambsquarters [16]; three weeks after application): 4 (Herbicidal rate of 70% or more and less than 90%)
- P: chickweed, herbicidal effect grade (chickweed; three weeks after application): 5 (Herbicidal rate of 90% or more (almost completely withered))
- R: persian speedwell, herbicidal effect grade (persian speedwell; three weeks after application): 5 (Herbicidal rate of 90% or more (almost completely withered))
